Values joined by “and” are separate entries in the source; they are usually repeats but may differ in a detail not shown here. Equal entries are not always repeated. Inconclusive results and toxic doses are left out. No stated cut-off is given here; in the data, active means T/C of 150% or more; inactive means T/C below 125%.
System: L1210 leukemia ip in BDF1 mice, survival T/C
Test: NCI In Vivo Anticancer Drug Screen. Data for tumor model L1210 Leukemia (intraperitoneal) in B6D2F1 (BDF1) mice
Conditions: endpoint: mean survival time, higher = longer survival
Procedure, shortened: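 Survival endpoint. Drug-treated group vs vehicle group, expressed as T divided by C. Tumor passaged by transplantation.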

[1] = dose: 100.0 mg/kg/injection, schedule: Q01DX009 (ip), vehicle: saline with Tween-80
[2] = dose: 200.0 mg/kg/injection, schedule: Q01DX009 (ip), vehicle: saline with Tween-80
[3] = dose: 400.0 mg/kg/injection, schedule: Q01DX009 (ip), vehicle: saline with Tween-80
[4] = dose: 100.0 mg/kg/injection, schedule: Q01DX001 (ip), vehicle: saline with Tween-80
[5] = dose: 200.0 mg/kg/injection, schedule: Q01DX001 (ip), vehicle: saline with Tween-80
[6] = dose: 100.0 mg/kg/injection, schedule: Q01DX001 (ip), vehicle: carboxymethylcellulose (CMC)
[7] = dose: 200.0 mg/kg/injection, schedule: Q01DX001 (ip), vehicle: carboxymethylcellulose (CMC)
[8] = dose: 400.0 mg/kg/injection, schedule: Q01DX001 (ip), vehicle: carboxymethylcellulose (CMC)
[9] = dose: 50.0 mg/kg/injection, schedule: Q01DX009 (ip), vehicle: saline
[10] = dose: 100.0 mg/kg/injection, schedule: Q04DX003 (ip), vehicle: saline with Tween-80
[11] = dose: 200.0 mg/kg/injection, schedule: Q04DX003 (ip), vehicle: saline with Tween-80
[12] = dose: 400.0 mg/kg/injection, schedule: Q04DX003 (ip), vehicle: saline with Tween-80
[13] = dose: 100.0 mg/kg/injection, schedule: Q04DX003 (ip), vehicle: Klucel (hydroxypropylcellulose) (HPC)
[14] = dose: 200.0 mg/kg/injection, schedule: Q04DX003 (ip), vehicle: Klucel (hydroxypropylcellulose) (HPC)
[15] = dose: 400.0 mg/kg/injection, schedule: Q04DX003 (ip), vehicle: Klucel (hydroxypropylcellulose) (HPC)
[16] = dose: 100.0 mg/kg/injection, schedule: Q01DX001 (ip), vehicle: Klucel (hydroxypropylcellulose) (HPC)
[17] = dose: 200.0 mg/kg/injection, schedule: Q01DX001 (ip), vehicle: Klucel (hydroxypropylcellulose) (HPC)
[18] = dose: 400.0 mg/kg/injection, schedule: Q01DX001 (ip), vehicle: Klucel (hydroxypropylcellulose) (HPC)
[19] = dose: 100.0 mg/kg/injection, schedule: Q04DX002 (ip), vehicle: saline with Tween-80
[20] = dose: 100.0 mg/kg/injection, schedule: Q01DX001 (ip), vehicle: saline

Measured: T/C

NC(Cc1ccc([N+](=O)[O-])cc1)C(=O)O (configuration not stated)
inactive: dose: 100.0 mg/kg/injection, schedule: Q01DX001 (ip), vehicle: saline sonified 116 % of control | [1] 100 % of control and 98 % of control | dose: 100.0 mg/kg/injection, schedule: Q04DX003 (ip), vehicle: saline 111 % of control | dose: 200.0 mg/kg/injection, schedule: Q01DX001 (ip), vehicle: saline sonified 103 % of control | [2] 95 % of control | dose: 200.0 mg/kg/injection, schedule: Q04DX003 (ip), vehicle: saline 101 % of control | dose: 400.0 mg/kg/injection, schedule: Q01DX001 (ip), vehicle: saline sonified 103 % of control | [3] 100 % of control and 92 % of control | dose: 400.0 mg/kg/injection, schedule: Q04DX003 (ip), vehicle: saline 90 % of control

CC(=O)OC1OC2COC(C)(C)OCC2C(OC(C)=O)C1OC(C)=O (configuration not stated)
inactive: [4] 96 % of control | [5] 104 % of control

CC1=CC(=O)CC(c2ccccc2)C1 (configuration not stated)
inactive: [6] 105 % of control | [7] 103 % of control | [8] 109 % of control

CCN(CC)CCOC(=O)CSC1C2CC3C(C2)C31 (configuration not stated)
inactive: [9] 94 % of control | dose: 100.0 mg/kg/injection, schedule: Q01DX009 (ip), vehicle: saline 90 % of control | dose: 200.0 mg/kg/injection, schedule: Q01DX009 (ip), vehicle: saline 123 % of control

Cc1ccc(C(C)(C)Cl)cc1O
inactive: [1] 93 % of control | [10] 96 % of control | [2] 93 % of control | [11] 102 % of control | [3] 98 % of control | [12] 102 % of control

N=C1SCc2c1sc1ccccc21
inactive: [13] 117 % of control | [14] 104 % of control | [15] 103 % of control

CSc1ncnc2c1ncn2-n1c(C)ccc1C
inactive: [4] 89 % of control | [10] 96 % of control | [5] 90 % of control | [11] 94 % of control | dose: 400.0 mg/kg/injection, schedule: Q01DX001 (ip), vehicle: saline with Tween-80 93 % of control | [12] 93 % of control

COCCNCC1OC(OC)C2OC(C)(C)OC12 (configuration not stated)
inactive: dose: 100.0 mg/kg/injection, schedule: Q01DX005 (ip), vehicle: saline 104 % of control | dose: 200.0 mg/kg/injection, schedule: Q01DX005 (ip), vehicle: saline 102 % of control

CNS(=O)(=O)c1ccccc1CC(O)(c1ccccc1)c1ccccc1
inactive: dose: 100.0 mg/kg/injection, schedule: Q01DX001 (ip), vehicle: steriod suspending solution 88 % of control | dose: 200.0 mg/kg/injection, schedule: Q01DX001 (ip), vehicle: steriod suspending solution 87 % of control

CCCCCC1CCC(OC(C)=O)CC1 (configuration not stated)
inactive: [16] 99 % of control | [13] 101 % of control | [17] 96 % of control | [14] 95 % of control | [18] 96 % of control | [15] 93 % of control

C=CC(=O)c1ccccc1
inactive: dose: 25.0 mg/kg/injection, schedule: Q04DX002 (ip), vehicle: saline with Tween-80 100 % of control | dose: 50.0 mg/kg/injection, schedule: Q04DX002 (ip), vehicle: saline with Tween-80 87 % of control | [19] 94 % of control

COc1cc2c(cc1OC)C(Cc1cc3c(cc1[N+](=O)[O-])OCO3)=NCC2
inactive: [20] 96 % of control | dose: 200.0 mg/kg/injection, schedule: Q01DX001 (ip), vehicle: saline 96 % of control | dose: 400.0 mg/kg/injection, schedule: Q01DX001 (ip), vehicle: saline 93 % of control

Oc1ccc(Br)cc1/C=N/c1nc(-c2ccccc2)cs1.Oc1ccc(Br)cc1/C=N/c1nc(-c2ccccc2)cs1.[Zn]
inactive: [20] 86 % of control

CCS(=O)(=O)c1ccc(NC(=O)Oc2cc(C)ccc2C(C)C)cc1
inactive: [6] 91 % of control | [7] 96 % of control | [8] 94 % of control

CCOC(=O)/C=C1\NC(=O)N(CCCN2C(=O)N/C(=C\C(=O)OCC)C2=O)C1=O
inactive: [1] 97 % of control

NCC(c1ccccc1)c1ccccc1
inactive: dose: 1.25 mg/kg/injection, schedule: Q01DX009 (ip), vehicle: saline 103 % of control | dose: 12.5 mg/kg/injection, schedule: Q04DX003 (ip), vehicle: saline 98 % of control | dose: 25.0 mg/kg/injection, schedule: Q01DX009 (ip), vehicle: saline 98 % of control | dose: 25.0 mg/kg/injection, schedule: Q04DX003 (ip), vehicle: saline 98 % of control | [9] 95 % of control | dose: 50.0 mg/kg/injection, schedule: Q04DX003 (ip), vehicle: saline 102 % of control

CC1(C)CC(=O)C2=C(C1)OC1=C(C(=O)CC(C)(C)C1)C2c1ccccc1[N+](=O)[O-]
inactive: [10] 98 % of control | [11] 88 % of control | [12] 97 % of control

CCCCSc1n[nH]c(=O)nc1SC
inactive: dose: 100.0 mg/kg/injection, schedule: Q01DX001 (ip), vehicle: acetone 104 % of control

CCC[CH2][Sn]1([CH2]CCC)[O]OC(c2ccccc2)[O]1 (configuration not stated)
inactive: dose: 0.5 mg/kg/injection, schedule: Q01DX009 (ip), vehicle: saline sonified 102 % of control | dose: 1.0 mg/kg/injection, schedule: Q01DX009 (ip), vehicle: saline sonified 98 % of control | dose: 2.0 mg/kg/injection, schedule: Q01DX009 (ip), vehicle: saline sonified 104 % of control

Cc1ccc(S(=O)(=O)N(CCCBr)c2ccc(C3(CCl)OCCO3)cc2)cc1
inactive: [16] 91 % of control | [17] 91 % of control | [18] 91 % of control

Clc1ccc(OCc2ccccc2)c(Cl)c1
inactive: dose: 100.0 mg/kg/injection, schedule: Q04DX002 (ip), vehicle: Klucel (hydroxypropylcellulose) (HPC) 106 % of control | dose: 200.0 mg/kg/injection, schedule: Q04DX002 (ip), vehicle: Klucel (hydroxypropylcellulose) (HPC) 106 % of control | dose: 400.0 mg/kg/injection, schedule: Q04DX002 (ip), vehicle: Klucel (hydroxypropylcellulose) (HPC) 95 % of control

CCOc1ccc(Br)cc1/C=N/NS(=O)(=O)c1ccc(C)cc1
inactive: [1] 94 % of control | [10] 97 % of control | [2] 97 % of control | [11] 103 % of control | [3] 101 % of control | [12] 103 % of control

COc1ccc(NC(=S)Nc2ccc(Cc3ccc(NC(=S)Nc4ccc(OC)cc4)cc3)cc2)cc1
inactive: [19] 101 % of control | dose: 200.0 mg/kg/injection, schedule: Q04DX002 (ip), vehicle: saline with Tween-80 95 % of control | dose: 400.0 mg/kg/injection, schedule: Q04DX002 (ip), vehicle: saline with Tween-80 88 % of control

COc1ccc(-c2cc(-c3ccccc3)c3ccccc3n2)c(OC)c1OC
inactive: dose: 100.0 mg/kg/injection, schedule: Q01DX009 (ip), vehicle: Klucel (hydroxypropylcellulose) (HPC) 100 % of control | dose: 200.0 mg/kg/injection, schedule: Q01DX009 (ip), vehicle: Klucel (hydroxypropylcellulose) (HPC) 90 % of control | dose: 400.0 mg/kg/injection, schedule: Q01DX009 (ip), vehicle: Klucel (hydroxypropylcellulose) (HPC) 90 % of control

CN(C)c1ccc(C(=O)CCCN2CCC3(CC2)C(=O)NCN3c2ccccc2)cc1
inactive: [16] 100 % of control | [17] 94 % of control | [18] 100 % of control
